{"source": "patent US6442423B1", "about": "“Device for iontophoretic administration of drugs” (Hadasit Medical Research Services & Development Limited, priority 1998, dated 2002)", "key": {"[1]": {"conditions": "INT; cited from earlier work"}, "[2]": {"conditions": "INT, drug incorporated in soft agar gel; cited from earlier work"}, "[3]": {"conditions": "INT via the cornea, aphakic rabbit eye; cited from earlier work"}, "[4]": {"conditions": "iontophoresis, rabbit eyes; cited from earlier work"}, "[5]": {"conditions": "monkey eye, cited from earlier work"}, "[6]": {"assay": "Release of gentamicin into the rabbit eye using hydrogel-probe iontophoresis (Example 5)", "experimental": "Thirty six healthy rabbits (age 2-3 months, weight 2000 grams) were used. The study conformed with the ARVO Resolution of the Use of Animals in Research. The animals were anesthetized with intramuscular injections of ketamin HCl […] (Park Davis, Morris Plains, N.J.) and xylazine […] (Mobay, Shawnee, Kans.). Iontophoresis was carried out as follows: the distal end of the hydrogel-probe placed in a device as shown in FIG. 2 (diameter of 3 mm and 2 mm thick) was gently applied to the cornea of the rabbit while the anode of the iontophoretic system is inserted into the other end of the device and the cathode is attached to the ear of the animal.\nA single concentration of 10 mg/ml gentamicin in the hydrogel-probe (dd) was studied, using two time periods of iontophoresis: long periods (60 seconds) and short periods (10 seconds). Six groups of rabbits, 6 animals per group, were treated with one of the treatments described in the following Table 1.\nIn group 3, one drop of topical gentamicin (14 mg/ml) was instilled into the eye every 5 minutes for 1 hour. In groups 4 and 5, mock iontophoresis was performed by placing a device containing 10 mg/ml of gentamicin on the cornea for 60 and 10 seconds without switching on the electric current. In group 6 iontophoresis was applied for 2 minutes with the dd containing NaCl 0.9% (instead of gentamicin).\nTen minutes after completion of the iontophoresis, or the control drug delivery technique in each animal, the surface of the eye was washed with 5 ml of NaCl 0.9%. The animals were sacrificed after 15 minutes by injecting an overdose of sodium pentobarbital. The entire cornea was excised with corneal scissors and rinsed again with 5 ml of NaCl 0.9%. The cornea was weighed, minced with a blade and placed into microcentrifuge tubes. To each tube, 0.5 ml 0.01 M phosphate buffered saline (pH 7.2) was added. The tubes were incubated for 18 hours in a water bath heated to 37° C., shaking at 100 oscillations/min. Thereafter the tubes were centrifuged for 10 min. at 2000 rpm. From each tube 125 microliter of the supernatant were assayed for gentamicin concentration using Abbot TDx. The concentration of gentamicin in the cornea was calculated as described before^(5). Gentamicin concentrations are expressed in micrograms per gram of tissue or per milliliter of buffer. 3 way ANOVA test was used for statistical evaluation."}, "[7]": {"assay": "Effect of current applied and duration of iontophoresis on drug cornea concentration (Experiment 6)", "type": "in vivo, Albino rabbits", "parameters": "Gentimicin concentration in the cornea, Average: unit not given here", "text": "The purpose of this experiment was to determine the effect of the current applied and duration on the drug cornea concentration."}, "[8]": {"system": "experimentally induced keratitus", "conditions": "experimentally induced keratitus in the rabbit eye; cited from earlier work"}, "[9]": {"conditions": "Group 2: hydrogel probe 10 mg/ml gentamicin, 0.5 mA, 10 sec iontophoresis"}, "[10]": {"conditions": "Group 4: hydrogel probe 10 mg/ml gentamicin, 0.0 mA, 60 sec (mock iontophoresis)"}}, "note": "Several values for one entry are separate records, joined by “and”; a condition that tells them apart may be missing. Equal values may be shown once.", "data": [{"molecule": "CC(=O)N1CCN(c2ccc(OCC3COC(Cn4ccnc4)(c4ccc(Cl)cc4Cl)O3)cc2)CC1", "note": "(stereo not shown) [ketaconazole]", "values": [{"measurement": "penetration into the animals' anterior chamber", "setting": "[1]", "value": "increased the penetration"}]}, {"molecule": "gentamicin", "values": [{"measurement": "concentrations transferred into the rabbit cornea", "setting": "[2]", "value": "marked concentrations"}, {"measurement": "levels of gentamicin in the vitreous", "setting": "[3]", "value": "high levels"}, {"measurement": "concentrations in the vitreous", "setting": "[4]", "value": "high concentrations"}, {"measurement": "concentrations of gentamicin in the vitreous", "setting": "[5]; transscleral INT using solutions, for several hours", "value": "bactericidal concentrations"}, {"measurement": "damage to the retina, repeated Electro Retino Graphia (ERG) tests", "setting": "[5]; transscleral INT", "value": "did not show damage to the retina"}, {"measurement": "Gentamicin concentration in cornea, Average", "setting": "[6]; Group 1: hydrogel probe 10 mg/ml gentamicin, 0.5 mA, 60 sec iontophoresis", "value": "33.1 ± 9.3", "unit": "µg/g"}, {"measurement": "Gentamicin concentration in cornea, Average", "setting": "[6]; [9]", "value": "6.5 ± 0.8", "unit": "µg/g"}, {"measurement": "Gentamicin concentration in cornea, single eyes (Eye No. 1-6)", "setting": "[6]; [9]", "value": "6.27 µg/g and 6.53 µg/g and 4.92 µg/g and 6.70 µg/g and 7.05 µg/g and 7.52 µg/g"}, {"measurement": "Gentamicin concentration in cornea, Average", "setting": "[6]; Group 3: eye drops, one drop every 5 minutes for 1 hour, no current", "value": "2.1 ± 1.0", "unit": "µg/g"}, {"measurement": "Gentamicin concentration in cornea, Average", "setting": "[6]; [10]", "value": "2.6 ± 0.3", "unit": "µg/g"}, {"measurement": "Gentamicin concentration in cornea, single eyes (Eye No. 1-6)", "setting": "[6]; [10]", "value": "2.01 µg/g and 2.55 µg/g and 2.78 µg/g and 2.89 µg/g and 2.70 µg/g and 2.96 µg/g"}, {"measurement": "Gentamicin concentration in cornea, Average", "setting": "[6]; Group 5: hydrogel probe 10 mg/ml gentamicin, 0.0 mA, 10 sec (mock iontophoresis)", "value": "1.1 ± 0.4", "unit": "µg/g"}, {"measurement": "Gentimicin concentration in the cornea, Average", "setting": "[7]; Group 1: hydrogel probe 10 mg/ml, 0.0 mA, 60 sec", "value": "2.71 ± 2.0"}, {"measurement": "Gentimicin concentration in the cornea, Average", "setting": "[7]; Group 2: hydrogel probe 10 mg/ml, 0.1 mA, 60 sec", "value": "4.5 ± 3.5"}, {"measurement": "Gentimicin concentration in the cornea, Average", "setting": "[7]; Group 3: hydrogel probe 10 mg/ml, 0.3 mA, 60 sec", "value": "42.2 ± 27.1"}, {"measurement": "Gentimicin concentration in the cornea, Average", "setting": "[7]; Group 4: hydrogel probe 10 mg/ml, 0.6 mA, 60 sec", "value": "88.6 ± 38.6"}, {"measurement": "Gentimicin concentration in the cornea, Average", "setting": "[7]; Group 5: hydrogel probe 10 mg/ml, 0.0 mA, 10 sec", "value": 0.0}, {"measurement": "Gentimicin concentration in the cornea, Average", "setting": "[7]; Group 6: hydrogel probe 10 mg/ml, 0.1 mA, 10 sec", "value": "4.0 ± 2.4"}, {"measurement": "Gentimicin concentration in the cornea, Average", "setting": "[7]; Group 7: hydrogel probe 10 mg/ml, 0.3 mA, 10 sec", "value": "10.2 ± 4.1"}, {"measurement": "Gentimicin concentration in the cornea, Average", "setting": "[7]; Group 8: hydrogel probe 10 mg/ml, 0.6 mA, 10 sec", "value": "22.0 ± 7.8"}, {"measurement": "Gentimicin concentration in the cornea, Average", "setting": "[7]; Group 9: subconj. inj., 0.3% w/v, no current", "value": "30 ± 18.6"}, {"measurement": "gentamicin concentrations in the intraocular fluid", "setting": "[7]; Groups 3 and 4 (0.3 and 0.6 mA, 60 sec)", "value": "High gentamicin concentrations"}, {"measurement": "increase in drug concentration as compared with SC injections", "setting": "[7]; current of 0.6 mAmp", "value": 3, "unit": "times"}, {"measurement": "increase in drug concentration over a non-current application (diffusion only)", "setting": "[7]; current of 0.6 mAmp", "value": "about 30 times"}]}, {"molecule": "Cc1nnc(SCC2=C(C(=O)O)N3C(=O)[C@@H](NC(=O)Cn4cnnn4)[C@H]3SC2)s1", "note": "[cefazoline]", "values": [{"measurement": "concentrations in the vitreous", "setting": "[4]", "value": "high concentrations"}]}, {"molecule": "NC[C@H]1O[C@H](O[C@H]2[C@H](O)[C@@H](O[C@H]3O[C@H](CO)[C@@H](O)[C@H](N)[C@H]3O)[C@H](N)C[C@@H]2N)[C@H](N)C[C@@H]1O", "note": "[tobramycin]", "values": [{"measurement": "efficacy of INT versus topical administration", "setting": "[8]", "value": "more effective than topical administration"}]}, {"molecule": "CC1(C)S[C@@H]2[C@H](NC(=O)[C@H](C(=O)O)c3ccsc3)C(=O)N2[C@H]1C(=O)O", "note": "[ticarcillin]", "values": [{"measurement": "concentrations in the vitreous", "setting": "[4]", "value": "high concentrations"}]}]}
